Results reported in patent US7214512B2, “Genomic mammary Amyloid a sequence” (The Board of Regents of the University of Nebraska, priority 1999, dated 2007).
Several values for one entry are separate records, joined by “and”; a condition that tells them apart may be missing. Equal values may be shown once.

Columns and labels:
[1] = test system: MUC3 mRNA; test: MUC3 mRNA expression in intestinal epithelial cell culture assay; assay type: cell-based, human; conditions: for MUC3 mRNA stimulation versus control (in words) / MUC3 mRNA/28s RNA ratio, Mean: 30 minutes at 37° C. at 50 μg/ml; for MUC3 mRNA stimulation versus control (in words): p<0.008; for MUC3 mRNA/28s RNA ratio, Mean: peptide comparison, Control = 100.000
Text: Different mucin genes have been identified and to date, twelve human mucin genes have been identified. However, MUC3 mucin is the predominant intestinal mucin. It has previously been shown that the MUC3 mucins are effective in preventing the adherence of enteropathogenic Escherichia coli (EPEC) to intestinal epithelial cells. […] It is also well known that breast-feeding infants are far less susceptible to infectious diarrhea than formula fed infants. There are a number of theories why this is so, but it is hypothesized that milk-associated amyloid (colostrum SAA) may be an important inducer of MUC3 gene expression. Applicant has evaluated MUC3 mRNA expression using an in vitro human cell culture assay system. In this system, intestinal cells incubated with the N-terminal peptide sequence of colostrum SAA have shown increased MUC3 mRNA expression as compared to control cells grown without the addition of colostrum SAA to the cell culture medium. To further explore this finding, Applicant has evaluated the functional specificity of the N-terminal peptide sequence of colostrum SAA by evaluation of MUC3 expression in the same in vitro assay using colostrum SAA N-terminal peptide sequences that have been randomly scrambled and a colostrum SAA peptide sequence downstream of the N-terminal sequence. If the expression of MUC3 is increased then intestinal cells grown in the presence of colostrum SAA should have a greater capacity to inhibit adherence of bacterial pathogens. This will be studied using EPEC in an in vitro assay system pre-incubated with colostrum SAA in the cell culture medium. Enteropathogenic E. coli are non-invasive, non-toxin producing pathogens that have been recognized as a significant cause of diarrhea in third world countries and in day care settings in developed countries. Future studies will evaluate the benefits of colostrum SAA in in vivo studies as well as characterized animal equivalent to human EPEC. Colostrum associated SAA provides a means to naturally upregulate the innate protective mechanisms of the human intestine and would provide a novel form of therapy to a common problem that occurs all too often in the third world leads to death of infants and in the developed world countries and leads to significant morbidity and cost. Furthermore, prevention of intestinal infections for traveler's or those having to live in conditions with altered sanitary practices would also reduce morbidity. Thus, this therapy offers an effective, natural, non-drug/chemical therapy.
(§1) These four peptides were used in a cell culture assay designed to evaluate them for their properties of inducing mucin (MUC) mRNA production, either MUC3 or MUC2 according to the methods described by Mack et al. (Biochem. Biophys. Res. Commun. 199: 1012–1018, 1994 and Am J Physiol. Vol. 4, part 1, pg. G841–950, 1999).
N-Terminal Peptide Titration and MUC3 mRNA Expression. Intestinal epithelial cells, Mack et al. 1994, 1999, were exposed to the N-terminal 10 amino acid bovine colostrum-SAA peptide (SEQ ID NO:30) at various concentrations for 30 minutes incubation at […]. The cells were incubated an additional hour following replacement of the test medium with fresh medium without peptide and then the total cellular niRNA isolated and analyzed for MUC3 specific mRNA. […] The optimum concentration was 50 μg/ml medium (see FIG. 7).
MUC3 Stimulation. MUC3 stimulating activity of the N-terminal 10 amino acid bovine colostrum-SAA peptide was compared to the activity of the “Limited Scramble”, the “Total Scramble” and “C-Terminal peptides”. Optimum time and temperature of incubation and concentration of peptides was for 30 minutes at 37° C. at 50 μg/ml respectively.

[2] = test system: MUC2 mRNA; test: MUC2 mRNA expression in intestinal epithelial cells cultured under conditions favoring MUC2; assay type: cell-based, human; conditions: for MUC2 mRNA/28s RNA ratio, Mean: peptide comparison, conditions optimized for MUC3 stimulation, Control = 100.000
Text: as §1
MUC2 mRNA Stimulation. To address whether the N-Terminal 10 amino acid bovine colostrum-SAA peptide would stimulate mRNA synthesis for MUC2 production, intestinal epithelial cells were cultured under conditions favoring MUC2 expression rather than MUC3. All peptides were used at concentrations and conditions that were previously optimized for MUC3 stimulation. […] Additionally, conditions were changed to 2× the optimum MUC3 incubation time (1 hr). […] The evidence strongly indicates specificity of function in stimulating the production of a mucin produced mainly in the small intestine (MUC3) over one produced primarily in the large intestine (MUC2) (see FIG. 9).

[3] = Isoelectric focusing (IEF) and 2-D gel of SAA preparations; assay type: physicochemical; conditions: IEF on IPG strips, anti-SAA monoclonal antibody stain
Text: Isoelectric Focusing (IEF) of SAA from serum, colostrum and cell culture fluid. The PROTEIN IEF Cell (BioRad) was used for the isoelectric focusing of the various SAA preparations. Ready Strip IPG Strips (BioRad Laboratories) with a pH range of 3–10 were used for the IEF. The second dimension (2-D) of the protein analysis was done by subjecting the IPG strips to 12% SDS-PAGE gel and electroblotting onto a PVDF membrane. The strips and blots were done in duplicate so that one of the blots could be stained with a protein stain, Coomassie Brilliant Blue, (CBB) and the other stained with the anti-SAA monoclonal antibody for the identification of the SAA protein isoforms. The samples also contained internal IEF standards (BioRad Laboratories) so that isoelectric point (pI) of each SAA isoforms could be determined. By comparing the antibody stained spots to the spots of the standards stained with CBB the apparent pI of the SAA isoforms could be determined. […]
The proteins subjected to the IEF and 2-D analysis were either affinity purified as described for the cell culture fluid or, in the case of the serum only semi-purified by hydrophobic chromatography. SAA is a highly hydrophobic molecule and will bind readily to Octyl Sepharose beads and then under the appropriate conditions can be eluted off the matrix. […]

[4] = test system: Bovine MAC-T mammary gland epithelial cells; test: Colostrum-SAA production by MAC-T cells stimulated with prolactin (ELISA); assay type: cell-based
Procedure: Bovine MAC-T mammary gland epithelial cells were obtained from ATCC (CRL-10274) and cultured according to recommended conditions (Turner, J D and Huynh H. Immortalized bovine mammary epithelial cell line. U.S. Pat. No. 5,227,301 dated Jul. 13, 1993). MAC-T cells were cultured on Dulbecco's Modified Eagles Media (DMEM) supplemented with 10% Fetal Calf Serum (FCS), 5 μg/ml insulin, 1 μg/ml hydrocortisone and fungizone. Cells were incubated at 37° C. with 5% CO2. For colostrum-SAA production the cells were seeded onto type I Collagen coated plates. After 14 hours of incubation, the cells were washed twice with Dulbecco's phosphate buffered saline (DPBS) and incubated in media (DMEM, 5 μg/ml insulin, 1 μg/ml hydrocortisone and 2.5% FCS) supplemented with prolactin from sheep pituitary gland (5 μg/ml) for the stimulation of colostrum-SAA production. Approximately one half of the media was replaced daily with fresh prolactin supplemented media. Standard ELISA for the quantitation of SAA (FIG. 3) was used to assay aliquots of the growth media collected on the different days for the presence of colostrum-SAA.
Cells were kept in culture for 41 days in media supplemented with prolactin. Levels of colostrum-SAA production reached a maximum of almost 3000 ng/ml.

Molecule: MWGLTKFEAG (limited scramble for experiment) [N-terminal peptide in which the four TFLK amino acids were scrambled in their order, reference compound]
- MUC3 mRNA stimulation versus control (in words) [1]: lack of stimulation
- MUC3 mRNA/28s RNA ratio, Mean [1]: 95.000
- MUC2 mRNA/28s RNA ratio, Mean [2]: 87.167

Molecule: DAAQRGPQQA (peptide of residues in C-terminal region of bovine SAA used as experimental control) [control 10 amino acid peptide, first 7 residues from the C-terminal region of bovine SAA, reference compound]
- MUC3 mRNA/28s RNA ratio, Mean [1]: 111.333
- MUC2 mRNA/28s RNA ratio, Mean [2]: 67.500

Molecule: GKFAWEGMTL (randomized experimental control sequence) [Total Scramble, control peptide with the amino acids of the entire N-Terminal peptide in random order, reference compound]
- MUC3 mRNA/28s RNA ratio, Mean [1]: 109.333
- MUC2 mRNA/28s RNA ratio, Mean [2]: 65.833

Molecule: MWGTFLKEAG (N-terminal region of bovine colostrum SAA) [10 amino acid N-terminal portion of mature bovine colostrum-SAA containing the conserved TFLK]
- time in which intestinal mucin genes are turned on [1]: ≤ 30 min
- MUC3 mRNA stimulation versus control (in words) [1]: stimulated MUC3 mRNA statistically significantly over the control values
- optimum concentration for MUC3 mRNA stimulation ([1]; 30 minutes incubation): 50 μg/ml medium
- MUC3 mRNA/28s RNA ratio, Mean [1]: 174.833
- MUC2 mRNA increase over control (in words) ([2]; 100 and 500 μg/ml, incubation time 1 hr): None of these changes resulted in MUC2 mRNA increase over control values
- MUC2 mRNA stimulation versus control (in words) ([2]; concentrations and conditions optimized for MUC3 stimulation): the values were not significantly different
- MUC2 mRNA/28s RNA ratio, Mean [2]: 101.167

B1: colostrum-SAA: unique isoform of serum amyloid A found in bovine colostrum and MAC-T cell culture fluid (protein)
chain: QRWGTFLKEAGQGAKDMWRAYQDMKEANYRGADKYFHARGNYDAARRGPGGAWAAKVISNARETIQGITDPLFKGMTRDQVREDSKADQFANEWGRSGKDPNHFRPAGLPDKY
- apparent pI ([3]; listed as SAA purified from the culture fluid of MAC-T cells stimulated with LPS): 9.4–9.6

B2: SAA from the serum: SAA semi-purified from bovine serum, three isoforms staining with anti-SAA monoclonal antibody (protein)
chain: QWMSFFGEAYEGAKDMWRAYSDMREANYKGADKYFHARGNYDAAQRGPGGAWAAKVISDARENIQRFTDPLFKGTTSGQGQEDSRADQAANEWGRSGKDPNHFRPAGLPDKY
- apparent pI [3]: ~7.0 and ~5.8 and ~5.5

B3: prolactin: prolactin from sheep pituitary gland, used to stimulate colostrum-SAA production (protein, UniProt P01240 31-229, looked up)
Prolactin: TPVCPNGPGNCQVSLRDLFDRAVMVSHYIHNLSSEMFNEFDKRYAQGKGFITMALNSCHTSSLPTPEDKEQAQQTHHEVLMSLILGLLRSWNDPLYHLVTEVRGMKGVPDAILSRAIEIEEENKRLLEGMEMIFGQVIPGAKETEPYPVWSGLPSLQTKDEDARHSAFYNLLHCLRRDSSKIDTYLKLLNCRIIYNNNC
- maximum level of colostrum-SAA production ([4]; prolactin 5 μg/ml in media, 41 days in culture): ~3000 ng/mL
- detection of colostrum-SAA in media (in words) ([4]; prolactin stimulation, eight days): Measurable quantities of colostrum-SAA could be detected by day two
